2 compounds from BindingDB's records for PubMed 8301592 (Washington University, 1994) can be followed below.

Values joined by “and” are separate entries in the source; they are usually repeats but may differ in a detail not shown here. Equal entries are not always repeated.

In the test the target is D(3) dopamine receptor (Rattus norvegicus, UniProt P19020).
Sequence of D(3) dopamine receptor (P19020 whole entry): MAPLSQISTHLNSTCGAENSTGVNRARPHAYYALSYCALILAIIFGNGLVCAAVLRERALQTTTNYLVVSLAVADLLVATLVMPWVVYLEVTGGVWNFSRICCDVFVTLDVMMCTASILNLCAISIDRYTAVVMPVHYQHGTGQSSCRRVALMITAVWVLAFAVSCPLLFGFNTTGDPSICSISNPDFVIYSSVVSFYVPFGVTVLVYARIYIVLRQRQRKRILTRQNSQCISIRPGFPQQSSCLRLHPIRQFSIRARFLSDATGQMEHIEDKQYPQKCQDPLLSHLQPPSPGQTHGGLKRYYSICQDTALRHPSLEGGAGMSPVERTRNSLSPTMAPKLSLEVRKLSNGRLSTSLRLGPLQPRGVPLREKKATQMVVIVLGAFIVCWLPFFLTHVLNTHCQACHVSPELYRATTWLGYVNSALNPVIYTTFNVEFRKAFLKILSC

In general, Ki refers to the dissociation constant of the complex between target and ligand, obtained from inhibition or displacement. As for `CCc1cc(Cl)c(OC)c(C(=O)NC[C@@H]2CCCN2CC)c1O` [3-Chloro-5-ethyl-N-((S)-1-ethyl-pyrrolidin-2-ylmethyl)-6-hydroxy-2-methoxy-benzamide], the Ki is 0.00016 µM and 0.00046 µM. As for `Nc1nc2c(ncn2[C@@H]2O[C@H](COP(=O)(O)OP(=O)(O)NP(=O)(O)O)[C@@H](O)[C@H]2O)c(=O)[nH]1` [Guanylyl imidodiphosphate], the Ki is 0.264 µM and 0.617 µM.
